Results on one compound are retold here after patent publication US20070117826A1, “Pharmaceutical formulations comprising ibuprofen, oxycodone, and 14-hydroxycodeinone” (Forest Laboratories, Inc., priority 2005, published 2007).

Data set [1] deals with polychromatic erythrocyte cells in Crl:CD-1(ICR) BR mouse bone marrow. As to the kind of experiment: In vivo mouse micronucleus assay. As to conditions: for statistically significant increase in micronucleated PCEs: 31.25, 62.5 and 125 mg/kg; for signs of clinical toxicity in treated animals: mice dosed up to and including 125 mg/kg. Here is the method: The objective of this study was to evaluate 14-hydroxycodeinone for in vivo clastogenic activity and/or disruption of the mitotic apparatus by detecting micronuclei in polychromatic erythrocyte cells in Crl:CD-1®(ICR) BR mouse bone marrow. The assay design was based on Organization for Economic Co-operation and Development (OECD) guideline 474, updated and adopted Jul. 21, 1997. The study was conducted in compliance with the Good Laboratory Practice regulations as set forth by the FDA.
The micronucleus test can serve as a rapid screen for clastogenic agents and test articles which interfere with normal mitotic cell division (Schmid, W., The micronucleus test. Mutat. Res. 31, 9-15, 1975; Heddle et al., The introduction of micronuclei as a measure of genotoxicity. Mutat. Res. 123, 61-118, 1983). Micronuclei are small chromatin bodies, consisting of entire chromosomes and/or acentric chromosome fragments, which lag behind at mitotic anaphase. At telophase, these multiple micronuclei are in the cytoplasm. During maturation of hematopoietic cells from erythoblasts to erythocytes, the nucleus is extruded. Micronuclei, if present, persist in the cytoplasm of these non-nucleated cells. Detection of micronuclei in non-nucleated cells eliminates the need to search for metaphase spreads in treated cell populations. Test articles affecting spindle-fiber function or formation can be detected through micronucleus induction. In this study, enucleated immature red blood cells or polychromatic erythrocytes (PCEs) were analyzed for the presence of micronuclei.
The micronucleus assay used 48 animals approximately 8 weeks old at the […], with a weight range of 28.4 to 35.3 g.
At least 2000 erythrocytes (PCEs) per animal were analyzed for the presence of […] was assessed by scoring the number of PCEs and ic erythrocytes (NCEs) in at least the first 500 erythrocytes for each […] of the micronuleus assay results is presented in the following table.

In a further data set the test system is Crl:CD-1(ICR) BR mice. As to the kind of experiment: Dose range finding study (mortality). Type of data set: in vivo, mouse. As to conditions: oral gavage. On the procedure:
Since no appropriate toxicity data were available (e.g., the same species, strain, route, etc.), a dose range finding study was performed using the same treatment regimen used in the micronucleus assay. Young adult male and female mice of the Crl:CD-1®(ICR) BR strain from Charles River Laboratories, Raleigh, N.C., were used in this study. Dose levels of 0, 125, 250, and 500 mg/kg were tested.

Where “and” joins values, the source holds several entries; their conditions need not be identical. Identical values can stand only once. Entries after “also recorded” stand apart in the source; their conditions may differ.

For `COc1ccc2c3c1OC1C(=O)C=C[C@@]4(O)[C@@H](C2)N(C)CC[C@]314` (some centres unmarked) [14-hydroxycodeinone], the “PCE:NCE mean ratio” value came to 0.74 in data set [1] (31.25 mg/kg oral gavage, harvest 24 Hours); 0.64 in data set [1] (62.5 mg/kg oral gavage, harvest 24 Hours); 0.66 in data set [1] (125 mg/kg oral gavage, harvest 24 Hours); 0.36 in data set [1] (125 mg/kg oral gavage, harvest 48 Hours). In addition, in data set [1] (125 mg/kg, 48-hour group, difference not statistically significant at p≦0.05), the “bone marrow toxicity (PCE:NCE ratio versus control 0.60)” value was “suggesting induced bone marrow toxicity”. Moreover, the entries for the “statistically significant increase in micronucleated PCEs” value in data set [1] and in data set [1] (listed as 14-Hydroxycodeinone) were “no signs of clinical toxicity or a statistically significant increase in micronucleated PCEs” and “did not induce statistically significant increases”, respectively. Moreover, the “outcome of the mouse bone marrow micronucleus assay (mutagenic properties)” value in data set [1] (doses up to 125 mg/kg in mice) is “does not exhibit mutagenic properties; also recorded: negative”. For the same compound, the figures for the “signs of clinical toxicity in treated animals” value in data set [1] and in data set [1] (listed as 14-hyrdroxycodeinone) were “no signs of clinical toxicity” and “did not induce signs of clinical”, respectively. In data set [1] (treated groups overall), the “cytotoxicity to the bone marrow (PCE:NCE ratios versus control)” value is given as “lack of cytotoxicity to the bone marrow”. Also, the “Number of Mice (died/total)” value in the data set on Crl:CD-1(ICR) BR mice (125 mg/kg) is 0/6; with Crl:CD-1(ICR) BR mice (250 mg/kg), 3 of 6 and 3/6; in the data set with Crl:CD-1(ICR) BR mice (500 mg/kg) it was 14 of 18 and 14/18.
